Data: PubChem BioAssay (NCI)
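Growth conditions: 96-well plates. Treatment: test compound, 48 hours, 5 concentrations. Analysis: linear interpolation between bracketing concentrations; unreached endpoints set to highest concentration. Here, GI50 denotes the concentration required for 50% inhibition of growth. TGI marks complete inhibition of growth.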

Legend:
Test in all cases: NCI anticancer screen, dose series, 48 h
[1] = tested on: 786-0 renal
[2] = tested on: A498 renal
[3] = tested on: A549 NSCLC
[4] = tested on: ACHN renal
[5] = tested on: BT-549 breast
[6] = tested on: CAKI-1 renal
[7] = tested on: CCRF-CEM leukemia
[8] = tested on: COLO 205 colon
[9] = tested on: DU-145 prostate
[10] = tested on: EKVX NSCLC
[11] = tested on: HCC-2998 colon
[12] = tested on: HCT-116 colon
[13] = tested on: HCT-15 colon
[14] = tested on: HL-60(TB) leukemia
[15] = tested on: HOP-62 NSCLC
[16] = tested on: HOP-92 NSCLC
[17] = tested on: HS 578T breast
[18] = tested on: HT29 colon
[19] = tested on: IGROV1 ovarian
[20] = tested on: K-562 leukemia
[21] = tested on: KM12 colon
[22] = tested on: LOX IMVI melanoma
[23] = tested on: M14 melanoma
[24] = tested on: MALME-3M melanoma
[25] = tested on: MCF7 breast
[26] = tested on: MDA-MB-231 breast
[27] = tested on: MDA-MB-435
[28] = tested on: MDA-MB-468 breast
[29] = tested on: MOLT-4 leukemia
[30] = tested on: NCI-H226 lung
[31] = tested on: NCI-H23 lung
[32] = tested on: NCI-H460 lung
[33] = tested on: NCI-H522 lung
[34] = tested on: OVCAR-3 ovarian
[35] = tested on: OVCAR-4 ovarian
[36] = tested on: OVCAR-5 ovarian
[37] = tested on: OVCAR-8 ovarian
[38] = tested on: PC-3 prostate
[39] = tested on: RPMI-8226 leukemia
[40] = tested on: RXF 393 renal
[41] = tested on: SF-268 CNS
[42] = tested on: SF-295 CNS
[43] = tested on: SF-539 CNS
[44] = tested on: SK-MEL-2 melanoma
[45] = tested on: SK-MEL-28 melanoma
[46] = tested on: SK-MEL-5 melanoma
[47] = tested on: SK-OV-3 ovarian
[48] = tested on: SN12C renal
[49] = tested on: SNB-19 CNS
[50] = tested on: SNB-75 CNS
[51] = tested on: SR leukemia
[52] = tested on: SW-620 colon
[53] = tested on: T-47D breast
[54] = tested on: TK-10 renal
[55] = tested on: U251 CNS
[56] = tested on: UACC-257 melanoma
[57] = tested on: UACC-62 melanoma
[58] = tested on: UO-31 renal

In the case of O=C1NC(=NC23CC4CC(CC(C4)C2)C3)N/C1=C\c1ccc2ncccc2c1, the GI50 [1] is reported as 8.95 µM, the TGI [1] is reported as 45 µM and the GI50 [2] is reported as 1.12 µM. The TGI [2] was > 100 µM, the GI50 [3] was 4.09 µM and the TGI [3] was 18.6 µM. It also gave a GI50 [4] of 4.09 µM, a TGI [4] of 26.2 µM and a GI50 [5] of 4.39 µM. The TGI [5] was 41.9 µM, the GI50 [6] was 4.15 µM and the TGI [6] was 34.7 µM. The GI50 [7] was 3.22 µM, the TGI [7] was 19.1 µM and the GI50 [8] was 5.58 µM. For the same compound, the TGI [8] was > 100 µM, the GI50 [9] was 6.03 µM and the TGI [9] was > 100 µM. For the same compound, the GI50 [10] was 8.33 µM, the TGI [10] was > 100 µM and the GI50 [11] was 7.5 µM. For the same compound, the TGI [11] was > 100 µM, the GI50 [12] was 3.41 µM and the TGI [12] was 16 µM. The GI50 [13] was 2.8 µM, the TGI [13] was 22.7 µM and the GI50 [14] was 3.09 µM. For the same compound, the TGI [14] was 27.3 µM, the GI50 [15] was 6.56 µM and the TGI [15] was > 100 µM. For the same compound, the GI50 [16] was 25.9 µM, the TGI [16] was > 100 µM and the GI50 [17] was 2.9 µM. For the same compound, the TGI [17] was 34.3 µM, the GI50 [18] was 22.8 µM and the TGI [18] was > 100 µM. The GI50 [19] was 6.43 µM, the TGI [19] was > 100 µM and the GI50 [20] was 3.08 µM. For the same compound, the TGI [20] was > 100 µM, the GI50 [21] was 11 µM and the TGI [21] was > 100 µM. It also gave a GI50 [22] of 7.86 µM, a TGI [22] of 29.5 µM and a GI50 [23] of 6.07 µM. The TGI [23] was > 100 µM, the GI50 [24] was 28.6 µM and the TGI [24] was 94.9 µM. For the same compound, the GI50 [25] was 6.59 µM, the TGI [25] was > 100 µM and the GI50 [26] was 16.9 µM. For the same compound, the TGI [26] was 64.7 µM, the GI50 [27] was 5.53 µM and the TGI [27] was > 100 µM. For the same compound, the GI50 [28] was 2.11 µM, the TGI [28] was > 100 µM and the GI50 [29] was 3.95 µM. The TGI [29] was 26 µM, the GI50 [30] was 4.91 µM and the TGI [30] was 42.1 µM. The GI50 [31] was 4.98 µM, the TGI [31] was > 100 µM and the GI50 [32] was 3.38 µM. It also gave a TGI [32] of 15.2 µM, a GI50 [33] of 1.97 µM and a TGI [33] of 30.8 µM. For the same compound, the GI50 [34] was 2.86 µM, the TGI [34] was 29.7 µM and the GI50 [35] was 16.3 µM. For the same compound, the TGI [35] was 80.8 µM, the GI50 [36] was 64.4 µM and the TGI [36] was > 100 µM. The GI50 [37] was 8 µM, the TGI [37] was 33.2 µM and the GI50 [38] was 15 µM. The TGI [38] was 64.2 µM, the GI50 [39] was 6.82 µM and the TGI [39] was 51.2 µM. The GI50 [40] was 3.45 µM, the TGI [40] was 28.1 µM and the GI50 [41] was 8.17 µM. The TGI [41] was > 100 µM, the GI50 [42] was 7.56 µM and the TGI [42] was 64.9 µM. For the same compound, the GI50 [43] was 1.18 µM, the TGI [43] was > 100 µM and the GI50 [44] was 2.35 µM. The TGI [44] was 10 µM, the GI50 [45] was 12.5 µM and the TGI [45] was > 100 µM. The GI50 [46] was 12.4 µM, the TGI [46] was > 100 µM and the GI50 [47] was 3.59 µM. The TGI [47] was 35.2 µM, the GI50 [48] was 5.17 µM and the TGI [48] was > 100 µM. The GI50 [49] was 11.7 µM, the TGI [49] was > 100 µM and the GI50 [50] was 0.218 µM. The TGI [50] was 26.6 µM, the GI50 [51] was 2.33 µM and the TGI [51] was 12.3 µM. For the same compound, the GI50 [52] was 3.95 µM, the TGI [52] was > 100 µM and the GI50 [53] was 19.4 µM. For the same compound, the TGI [53] was > 100 µM, the GI50 [54] was 6.87 µM and the TGI [54] was 60.7 µM. It also gave a GI50 [55] of 10.2 µM, a TGI [55] of 26.8 µM and a GI50 [56] of 66.1 µM. The TGI [56] was > 100 µM, the GI50 [57] was 40.2 µM and the TGI [57] was > 100 µM. For the same compound, the GI50 [58] was 5.03 µM and the TGI [58] was > 100 µM.

Work on CCN(CC)c1ccc(/C=C/C2=[N+](C)c3ccccc3C2(C)C)cc1 yielded a GI50 [28] of 0.175 µM and a TGI [28] of 5.88 µM.

CC[C@]12C=CCN3CC[C@]4(C(=C(C(=O)OC)C1)Nc1ccccc14)[C@@H]32 gave a GI50 [28] of 3.4 µM and a TGI [28] of 15 µM.

In the case of Oc1ccc(-c2nc(-c3ccc(F)cc3)c(-c3ccncc3)[nH]2)cc1, the GI50 [28] is reported as 6.57 µM and the TGI [28] is reported as 44.4 µM.

For c1ccc(CNc2nc(Nc3ccc(-c4nc5ccccc5[nH]4)cc3)c3cn[nH]c3n2)cc1, the GI50 [28] was 2.05 µM and the TGI [28] was 4.81 µM.

For CCN1C(=O)N(CC)C2C1NN=c1s/c(=C\c3ccc([N+](=O)[O-])cc3)c(=O)n12 (stereo not given), the GI50 [28] was 0.409 µM and the TGI [28] was 7.14 µM.

With C[C@@H](Oc1cc(-n2cnc3ccc(OCC4CCN(C)CC4)cc32)sc1C(N)=O)c1ccccc1C(F)(F)F the GI50 [28] was 0.0442 µM and the TGI [28] was 0.192 µM.

For O=C(Nc1ccc(-n2cc(-c3ccncc3)c(-c3ccc(O)c(Cl)c3)n2)cc1)c1ccc(Cl)c(Cl)c1, the GI50 [28] was 4.25 µM and the TGI [28] was > 32.5 µM.

Work on COc1cc2c(c(Br)c1N)-c1cc(Br)c(N)cc1C2=O yielded a GI50 [28] of 0.0172 µM and a TGI [28] of 0.0421 µM.

Work on N=C(N)c1ccc(-c2ccc(-c3ccccc3)o2)cc1 yielded a GI50 [28] of 2.12 µM and a TGI [28] of 4.1 µM.

CCN(CC)CCN1C(=O)c2c(c3c4cc(Br)ccc4[nH]c3c3ccc4ccccc4c23)C1=O was tested, and the GI50 [28] was 1.52 µM and the TGI [28] was 3.45 µM.

Work on O=[N+]([O-])c1ccc([I+]c2ccccc2)cc1 yielded a GI50 [28] of 1.25 µM and a TGI [28] of 4.13 µM.

CC1OC(OC2C(OC3CCC4(C)C(CCC5(C)C4CC=C4C6CC(C)(C)CCC6(CO)C(O)CC45C)C3(C)C)OC(C(=O)O)C(OC3OC(COC4OC(CO)C(O)C(O)C4O)C(O)C(O)C3O)C2O)C(O)C(O)C1O (stereo not given) was tested, and the GI50 [28] was 1.85 µM and the TGI [28] was 6.81 µM.
